Data from EP0538469A1, “SULFONANILIDE DERIVATIVE AND MEDICINE” (NIPPON SHINYAKU COMPANY, LIMITED, priority 1990, dated 1991).
Structures can show the parent of a compound that is named as a salt.

Tests used:
Assay type in all cases: in vivo
mice (ddY-strain, male) = assay: Acute toxicity, oral, mice; conditions: observed two weeks
Experimental: (§1) Numbers of mice (ddY-strain, male, 6-8 weeks age) and rats (SD strain, male, 6-7 weeks age) in each group were 4 and 6, respectively.
(§2) The drug to be tested was orally administered at the dose of 10 ml/kg using an oral probe to the animals which were fasted since one day before (for 16-18 hours). After giving the drug, the animals were returned to the state where both feed and water were available and the general symptom and the dead cases, if any, were checked for two weeks. The drug was suspended in physiological saline solution containing 0.5% of methylcellulose (0.5% MC) and the suspension was given to the animals by oral route.

rats (SD strain, male) = assay: Acute toxicity, oral, rats; conditions: observed two weeks
Experimental: as §1, §2

[1] = Acute toxicity, oral, rats; conditions: rat, in vivo, SD rats, read-out: Rats LD₅₀
Experimental: as §1, §2

male rabbits = assay: Action to intra urethral pressure and blood pressure, intravenous administration; conditions: i.v.; for Selectivity (B/A): BP(ED30%↑) / IUP(ED150%↑); for ED (30%) / ED (150%): Oryctolagus cuniculus, iv, anesthetized male rabbits; for ED (30%): dose increasing blood pressure to an extent of 30%, read-out: BP(B) [BP(ED30%↑)] (converted); for ED (150%): dose increasing intra urethral pressure to an extent of 150%, read-out: IUP(A) [IUP(ED150%↑)]
Experimental: The experiment was conducted using male rabbits of body weight of 1.4-3.1 kg under fasted condition. The animals were fixed at backs under uretrane(1.2g/kg s.c.) anesthesia, abdomen was subjected to a midline incision and bladder was exposed. In order to prevent the urine stored in the bladder on the intra urethral pressure, the urine in the bladder was compulsorily discharged out of the body. After that, a catheter was inserted into both ureters and the urine discharged from kidney was introduced outside.
The intra urethral pressure(IUP) at the urethra tract of about 0.5-1 cm distance from the neck of the bladder was measured using a microtip transducer transducer equipped with a baloon (filled with physiological saline solution) at the top end. Further, polyethylene tube was inserted into femoral artery to measure the blood pressure (BP).
The drug to be tested was injected into the vein of ear every fifteen minutes and the maximum responses of the increasing action of intra urethral pressure tract and of the increasing action of blood pressure were measured at each dose.

For `CS(=O)(=O)Nc1cccc(C(O)CN)c1.Cl` (racemic) [(24A), (±)-3'-(2-Amino-1-hydroxyethyl)methanesulfonanilide hydrochloride, reference compound], the “Mice Dead/ Total” value (mice (ddY-strain, male); 1000 mg/kg) was 0 / 4, the “Mice Dead/ Total” value (mice (ddY-strain, male); 3000 mg/kg) was 3 / 4 and the “Rats Dead/ Total” value (rats (SD strain, male); 30 mg/kg) was 0 / 6. For the same compound, the “Rats Dead/ Total” value (rats (SD strain, male); 100 mg/kg) was 1 / 6, the “Rats Dead/ Total” value (rats (SD strain, male); 300 mg/kg) was 1 / 6 and the LD50 at 336 h [1] was greater than 300 mg/kg. The “Selectivity (B/A)” value (male rabbits; hydrochloride) was 1.0, the ED (30%) (male rabbits) was 0.036 mg/kg and the ED (150%) (male rabbits) was 0.035 mg/kg.

With `CS(=O)(=O)Nc1ccc(F)c(C(O)CN)c1` (racemic) [(49A), (±)-3'-(2-Amino-1-hydorxyethyl)-4'-fluoromethanesulfonanilide hydrochloride] the “Mice Dead/ Total” value (mice (ddY-strain, male); 1000 mg/kg) was 0 / 4, the “Rats Dead/ Total” value (rats (SD strain, male); 100 mg/kg) was 0 / 6 and the “Rats Dead/ Total” value (rats (SD strain, male); 500 mg/kg) was 1 / 6. For the same compound, the LD50 at 336 h [1] was greater than 500 mg/kg, the “Selectivity (B/A)” value (male rabbits) was 2.2 and the ED (30%) (male rabbits) was 0.044 mg/kg. The ED (150%) (male rabbits) was 0.02 mg/kg.

For `C[C@H](N)[C@H](O)c1cc(NS(C)(=O)=O)ccc1F` (racemic) [(59A), (±)-erythro-3'-(2-Amino-1-hydroxypropyl)-4'-fluoromethanesulfonanilide hydrochloride], the “Rats Dead/ Total” value (rats (SD strain, male); 100 mg/kg) was 0 / 6, the LD50 at 336 h [1] was greater than 100 mg/kg and the “Selectivity (B/A)” value (male rabbits; hydrochloride) was 1.9. It also gave an ED (30%) (male rabbits) of 0.083 mg/kg and an ED (150%) (male rabbits) of 0.044 mg/kg.

With `CNCC(O)c1ccc(F)c(NS(C)(=O)=O)c1.Cl` (racemic) [(61A), (±)-2'-Fluoro-5'-(1-hydroxy-2-methylaminoethyl)methanesulfonanilide hydrochloride, reference compound] the “Rats Dead/ Total” value (rats (SD strain, male); 300 mg/kg) was 0 / 6, the LD50 at 336 h [1] was greater than 300 mg/kg and the “Selectivity (B/A)” value (male rabbits; hydrochloride) was 1.2. It also gave an ED (30%) (male rabbits) of 0.037 mg/kg and an ED (150%) (male rabbits) of 0.031 mg/kg.

For `CS(=O)(=O)Nc1cc(C(O)CN)c(F)cc1F.Cl` (racemic) [(63A), (±)-5'-(2-Amino-1-hydroxyethyl)-2',4'-difluoromethanesulfonanilide hydrochloride], the “Rats Dead/ Total” value (rats (SD strain, male); 300 mg/kg) was 0 / 6, the LD50 at 336 h [1] was greater than 300 mg/kg and the “Selectivity (B/A)” value (male rabbits; hydrochloride) was 2.9. The ED (30%) (male rabbits) was 0.19 mg/kg and the ED (150%) (male rabbits) was 0.065 mg/kg.

For `CNCC(O)c1cc(NS(C)(=O)=O)ccc1Cl` (racemic) [(67A), (±)-4'-Chloro-3'-(1-hydorxy-2-methylaminoethyl)methanesulfonanilide hydrochloride, reference compound], the “Rats Dead/ Total” value (rats (SD strain, male); 300 mg/kg) was 0 / 6, the LD50 at 336 h [1] was greater than 300 mg/kg and the “Selectivity (B/A)” value (male rabbits; hydrochloride) was 4.2. The ED (30%) (male rabbits) was 2.93 mg/kg and the ED (150%) (male rabbits) was 0.7 mg/kg.

For `C[C@H](N)[C@H](O)c1ccc(F)c(NS(C)(=O)=O)c1` (racemic) [(70A), (±)-erythro-5'-(2-Amino-1-hydroxypropyl)-2'-fluoromethanesulfonanilide hydrochloride], the “Rats Dead/ Total” value (rats (SD strain, male); 300 mg/kg) was 2 / 6, the LD50 at 336 h [1] was greater than 300 mg/kg and the “Selectivity (B/A)” value (male rabbits; hydrochloride) was 3.6. For the same compound, the ED (30%) (male rabbits) was 0.1 mg/kg and the ED (150%) (male rabbits) was 0.028 mg/kg.
